Test results as given in patent US5314913A, “4- or 5-(substituted sulfonyl)methyl-3(2H)-furanones” (American Home Products Corporation, priority 1992, dated 1994).

Experiments:
[1] = test system: blood glucose levels in diabetic (db/db) mice; experiment: Blood glucose lowering in diabetic db/db mice; type: in vivo, db/db (C57BL/KsJ) mouse; details: p.o. by gavage, 4 doses, difference between mean percent change of vehicle and drug treated group; for change in vivo at 100 mg/kg: Mus musculus, po, read-out: Blood Glucose Levels % Change from Vehicle
Experimental: The animals are obese, glucose intolerant and have fasting hyperglycemia which is sometimes accompanied by a paradoxical hyperinsulinemia.
On the morning of Day 1, 12-15 mice [male db/db (C57BLKsJ), Jackson Laboratories, 2 to 7 months of age and body weight 35 to 60 g] were fasted for 4 hours, weighed and a baseline blood sample was collected from the tail-tip of each mouse without anesthesia, placed directly into a fluoride-containing tube, mixed and maintained on ice. Food was then returned to the mice. The plasma was separated and levels of glucose in plasma determined by the Abbott VP Analyzer. Because of the variable plasma glucose levels of the db/db mice, the mice were randomly assigned into 3-5 groups (4-5 mice per group) of equivalent mean plasma glucose levels:
On the afternoon of Days 1, 2 and 3 the vehicle, control or test drugs were administered (p.o.) to the ad libitum fed mice. The positive control, ciglitazone [(±)-5-[4-[(1-methylcyclohexyl]benzyl]-thiazolidine-2,4-dione] see Fujita et al. Diabetes, 32, 804 (1983), was given by gavage at a dose of 100 mg/kg/day. The test compounds were given by gavage at a dose of 100 mg/kg/day. The fourth and final dose was administered on the morning of day 4, after the mice had been fasted for 18 h. A blood sample was collected immediately preceeding the last dose, followed by samples collected at 90 and 120 min after drug administration. Insulin is immediately administered to each mouse after the 120 min sample. Serial blood samples were collected at 45 and 120 min after administration. The plasma was separated and the levels of glucose in plasma determined by the Abbot VP analyzer.
Analysis of variance followed by Dunnett's multiple comparison (one-sided) was used to estimate the degree of statistical significance of the difference between the vehicle control group and the individual drug-treated groups. A drug was considered active, at the specific dose administered, if the difference of the plasma glucose level has a p<0.10.
The actual difference between the mean percent change of blood glucose levels of the vehicle and the drug treated group is reported in Table 1.

cholesterol absorption = experiment: Cholesterol absorption in normal rats (oral [14C] cholesterol, serum radioactivity); type: in vivo; details: serum radioactivity at 6 hr
Experimental: Cholesterol absorption was measured in normal rats following simultaneous oral doses of the test compounds and radioactive cholesterol according to the method of Cayen and Dvornik except that [^14 C] cholesterol in propylene glycol and olive oil (vehicle for test compound) were used. Serum radioactivity was measured at 6 hr [Cayen, M. N. and Dvornik, D., J. Lipid Res., 20, 162 (1979)].

[2] = test system: gastric mucosal lesions produced by ethanol; experiment: Ethanol induced cytotoxicity in rats (gastric mucosal lesions); type: in vivo, Male Sprague-Dawley rats; details: Rattus norvegicus, oral, 1 hour prior to ethanol, read-out: % Inhibition (of lesion formation)
Experimental: The purpose of this assay is to evaluate the effectiveness of the compounds of the present invention in preventing the formation of gastric mucosal lesions produced by ethanol. The assay is based on A. Robert, et al: Gastroenterology, 77: 433-443, 1979.
Male Sprague-Dawley rats weighing between 120-150 grams were fasted for 24 hours prior to the experiment (water ad libitum). At least two hours before dosing, the animals were placed in individual cages with wire grid bottoms and denied access to water.
Ethanol was administered orally at 1 mL per animal. The compounds of the present invention were dissolved in water or suspended in water with 0.5% carboxymethylcullulose and administered orally at a dose based on an appropriate standard giving ED50 to ED75 response of cytoprotective activity.
The rats were randomly divided into groups of equal number, ordinarily 10 to a group. The rats were weighed and the individual weights were recorded. Exactly 1 hour prior to the administration of ethanol, the screening group was treated with the compounds of the present invention, and the control group with the vehicle. One hour after administering the ethanol the animals were sacrificed by cervical dislocation. The stomachs were removed, cut along the greater curvature and cleansed of all debris with tap water. The stomachs were set aside and kept moist with saline until the lesions were scored.
Macroscopic lesions on the gastric mucosa were numerically graded. The final grade assigned a stomach was the sum of all the grades.
Streaks longer than 6 mm are graded in multiples of 2 mm.
The degree of cytotoxicity occurring in each group is represented as the mean± S.E.M.
The mean of each treatment group was compared to the control group and expressed as the % inhibition of lesion formation.

Work on `CC1(COc2ccc(CC3SC(=O)NC3=O)cc2)CCCCC1` (racemic) [Ciglitazaone, (±)-5-[4-[(1-methylcyclohexyl]benzyl]-thiazolidine-2,4-dione, reference compound] yielded a change in vivo at 100 mg/kg [1] of -50 to -24%.

With `CC1(C)OC=C(CS(=O)(=O)c2ccccc2)C1=O` [Example 1, 2,2-Dimethyl-4-(phenylsulfonyl)methyl-3(2H)-furanone] the “decrease in cholesterol absorption” value (cholesterol absorption; 100 mg/kg) was 79% and the change in vivo at 100 mg/kg [1] was -30%.

`CC1(C)OC=C(CS(=O)(=O)c2cccc3ccccc23)C1=O` [Example 2, 2,2-Dimethyl-4-[(1-naphthalenyl)sulfonyl]methyl-3(2H)-furanone] showed a change in vivo at 100 mg/kg [1] of -21%.

`COc1ccccc1S(=O)(=O)CC1=COC(C)(C)C1=O` [Example 3, 4-[(2-Methoxyphenyl)sulfonyl]methyl-2,2-dimethyl-3(2H)-furanone] showed a change in vivo at 100 mg/kg [1] of -21%.

`CC1(C)OC=C(CS(=O)(=O)c2ccc([N+](=O)[O-])cc2)C1=O` [Example 4, 2,2-Dimethyl-4-[(4-nitrophenyl)sulfonyl]methyl-3(2H)-furanone] showed a change in vivo at 100 mg/kg [1] of -30%.

For `O=C1C(CS(=O)(=O)c2ccccc2)=COC12CCCCC2` [Example 6], the change in vivo at 100 mg/kg [1] was -25%.

For `CC1(C)OC(CS(=O)(=O)c2ccccc2)=CC1=O` [Example 7, 2,2-Dimethyl-5-(phenylsulfonyl)methyl-3(2H)-furanone], the “decrease in cholesterol absorption” value (cholesterol absorption; 250 mg/kg) was 58% and the change in vivo at 100 mg/kg [1] was -38%.

In the case of `CC1(C)OC(C(C)(C)S(=O)(=O)c2ccccc2)=CC1=O` [Example 8, 2,2-Dimethyl-5-[1-methyl-1-(phenylsulfonyl)ethyl]-3(2H)-furanone], the change in vivo at 100 mg/kg [1] is reported as -42%.

In the case of `CC1(C)OC(C2(S(=O)(=O)c3ccccc3)CCCC2)=CC1=O` [Example 9, 2,2-Dimethyl-5-[1-(phenylsulfonyl)-1-cyclopentyl]-3(2H)-furanone], the change in vivo at 100 mg/kg [1] is reported as -25%.

With `CC1(c2ccccc2)OC(CS(=O)(=O)c2ccccc2)=CC1=O` (stereo not drawn) [Example 10, 2-Methyl-2-phenyl-5-(phenylsulfonyl)methyl-3(2H)-furanone] the “decrease in cholesterol absorption” value (cholesterol absorption; 250 mg/kg) was 35% and the change in vivo at 100 mg/kg [1] was -19%.

Work on `CC1(C)OC(CS(=O)(=O)c2ccc(Cl)cc2)=CC1=O` [Example 11, 5-[(4-Chlorophenyl)sulfonyl]methyl-2,2-dimethyl-3(2H)-furanone] yielded an inhibition in vivo at 25 mg/kg [2] of 44%.

`CC1(C)OC(CS(=O)(=O)c2ccc(F)cc2)=CC1=O` [Example 12, 5-[(4-Fluorophenyl)sulfonyl]methyl-2,2-dimethyl-3(2H)-furanone] gave an inhibition in vivo at 25 mg/kg [2] of 6%.

In the case of `CC1(C)OC(CS(C)(=O)=O)=CC1=O` [Example 13, 2,2-Dimethyl-5-(methylsulfonyl)methyl-3(2H)-furanone], the inhibition in vivo at 25 mg/kg [2] is reported as 54%.

With `CC1(C)OC(CS(=O)(=O)c2ccc(C(C)(C)C)cc2)=CC1=O` [Example 14, 2,2-Dimethyl-5-[[4-(1,1-dimethylethyl)phenyl]sulfonyl]methyl-3(2H)-furanone] the inhibition in vivo at 25 mg/kg [2] was 43%.

`CC1(C)OC=C(CS(=O)(=O)c2ccc(F)cc2)C1=O` [Example 15, 4-[(4-Fluorophenyl)sulfonyl]methyl-2,2-dimethyl-3(2H)-furanone] showed an inhibition in vivo at 25 mg/kg [2] of 42%.

For `CC1(C)OC=C(CS(=O)(=O)c2ccc(C(C)(C)C)cc2)C1=O` [Example 16, 2,2-Dimethyl-4-[[4-(1,1-dimethylethyl)phenyl]sulfonyl]methyl-3(2H)-furanone], the inhibition in vivo at 25 mg/kg [2] was 30%.

`CC1(C)OC=C(CS(=O)(=O)C(C)(C)C)C1=O` [Example 17, 4-[(1,1-Dimethylethyl)sulfonyl]methyl-2,2-dimethyl-3(2H)-furanone] gave an inhibition in vivo at 25 mg/kg [2] of 87%.

`CC1(c2ccc(F)cc2)OC=C(CS(=O)(=O)C(C)(C)C)C1=O` (stereo not drawn) [Example 18, 4-[(1,1-Dimethylethyl)sulfonyl]methyl-2-(4-fluorophenyl)-2-methyl-3(2H)-furanone] was tested, and the inhibition in vivo at 10 mg/kg [2] was 80%.

`CC1(c2ccc(Cl)cc2)OC=C(CS(=O)(=O)C(C)(C)C)C1=O` (stereo not drawn) [Example 19, 4-[(1,1-Dimethylethyl)sulfonyl]methyl-2-(4-chlorophenyl)-2-methyl-3(2H)-furanone] showed an inhibition in vivo at 10 mg/kg [2] of 45%.

Compound `CC1(c2ccccc2)OC=C(CS(=O)(=O)C(C)(C)C)C1=O` (stereo not drawn) [Example 20, 4-[(1,1-Dimethylethyl)sulfonyl]methyl-2-methyl-2-phenyl-3(2H)-furanone] has an inhibition in vivo at 25 mg/kg [2] of 76%.

For “N-[[(4,5-Dihydro-5,5-dimethyl-4-oxo-3-furanyl)methyl]sulfonyl]phenylacetamide [Example 5]”, the “Blood Glucose Levels % Change from Vehicle” value ([1]; 100 (mg/kg)) was -23%.
